The text below walks through data of paper PMC5870190, “A three-in-one-bullet for oesophageal cancer: replication fork collapse, spindle attachment failure and enhanced radiosensitivity generated by a ruthenium(II) metallo-intercalator” (Chemical Science, 2017).

For test [1], the system named is OE21 cells. The experiment in a line: Cell-cycle analysis by flow cytometry. As to conditions: OE21, 20 μM, 24 h. The format is cell-based, human. The method, then: phototoxic contribution to bio-activity. Doxorubicin (Sigma) was prepared in doubly-distilled water (10 mg/mL, 17.4 mM).
[Ru(phen)2(dppz)]2+ (2 mM) was prepared in doubly-distilled water.
Sub-cellular fractionation. OE21 or OE33 cells were treated in 12 well plates, washed with cold PBS (2x2 mls) and nuclear and cytosol fractions obtained using the Nuclei EZ Lysis kit (Sigma). Briefly, cells were washed with acidified PBS (pH 2.5) to remove the membrane-bound fraction and 0.4 ml EZ lysis buffer was added. Cells were detached by scraping, collected into eppendorfs, vortexed briefly and left for 5 minutes on ice. Samples were centrifuged (500g, 5 mins) and the supernatant (cytosol fraction) aspirated. The pellet (nuclear fraction) was re-suspended in 200 µl RIPA buffer. […] Ruthenium content was determined by ICP-MS analysis as described in a recent […]
DNA fibre assay. […] CldU- and IdU-labelled tracts were visualised using a Leica DMRB microscope with a DFC360FX camera and tract length measured by ImageJ software. […]
Western blotting. […] Protein content was determined by BCA assay. […]
AnnexinV staining. […] This was incubated for 15 mins at room temperature, 400 µl binding buffer added and analysed by flow cytometry (FL1 and FL3 channels for FITC and PI respectively). […]
For orientation: A flow cytometer gives signals particle by particle.

Test [2] relates to OE33 human oesophageal adenocarcinoma. The experiment in a line: MTT assay, OE33 cells. The class given is cell-based. The protocol: (§1) MTT assay. OE21, FLO-1 or hSAEC1-KT cells were seeded in 96 well plates at 20,000 cells/well (for 24 h treatment) or 10,000 cells/well (for 72 h treatment) and allowed to adhere for 24 h before treatment. OE33 cells were seeded in 48 well plates at 40,000 cells/well (24 h treatment) or 20,000 cells/well (72 h treatment). Cancer cell lines were treated with chemicals dissolved in RPMI media for consistency. After incubation, 0.5 mg/ml MTT (thiazolyl blue tetrazolium bromide) dissolved in serum-free medium was added for 60 minutes and the formazan product eluted using acidified isopropanol.
(§2) The absorbance at 540 nm was quantified by plate reader (reference wavelength 650 nm). The metabolic activity of the cell population was determined as a percentage of a negative (solvent) control. […]
(§3) For the determination of mutation induction, from the untreated and each treated condition, 2x10^5 cells were plated in 10 x 100 mm dishes in selective media (regular media

Test [3] relates to OE21 human oesophageal squamous cell carcinoma. Kind of test: MTT assay, OE21 cells. As to conditions: for IC50: MTT. The class given is cell-based. The protocol:
as §1, §2, §3

The test system of test [4] is hSAEC1-KT normal human small airway epithelial cells. Kind of test: MTT assay, hSAEC1-KT cells. The class given is cell-based. The method, then: as §1, §2, §3
A general note: Formazan colour is commonly taken as a measure of viable cells.

The test system of test [5] is OE21 cells. Kind of test: Clonogenic survival assay with IR, OE21. As to conditions: Ru1 2 μM or Cis 500 nM for 24 h before IR. The class given is cell-based, human. The protocol:
Clonogenic survival assay. OE21, OE33 or FLO1 cells were treated with 2 µM Ru1 for 24 h before irradiation with 0-8 Gy using a 137Cs γ-irradiator (IBL637, CIS Bio Int.; dose rate = 0.809 Gy min−1). 1 h after irradiation, cells were detached using Trypsin and re-seeded in 6 well plates at a density of 300 – 20,000 cells/well in triplicate in an incrementally greater number of cells with increasing IR dose to ensure adequate colony formation. Cells were incubated for 7–14 days after re-seeding to allow colony formation before being fixed with 10% methanol, 10% acetic acid and stained with 0.4% methylene blue. OE33 cells required an additional formaldehyde fixation (4% in PBS, 5 mins) step before the addition of methylene blue solution or colony detachment occurred. Colonies containing 50 cells or greater were counted using a Gelcount instrument and accompanying software (Oxford Optronix). Plating efficiencies were determined for each treatment condition and normalised to an untreated control to provide the surviving fraction (S. F.). S.F. versus radiation dose curves were plotted in GraphPad Prism and fit using a second order polynomial function (R2 values > 0.99). Dose modifying factors (DMF) at a SF=0.1 were calculated using the equation: Dose modifying factor (DMF) = IR dose to give S.F. 0.1/IR dose plus compound to give S.F.0.1. […]

Consider [Ru(phen)2(tpphz)]^2+ [Ru1], for which the “increase in G2/M phase cells compared to control” value in test [1] is recorded as “two-fold”. In addition, the concentration for half-maximal inhibition (IC50) was determined as 44.5 ± 3.5 µM in test [2] (OE33, 24 h constant exposure); 27 ± 2.8 µM in test [2] (OE33, 72 h constant exposure); 21 ± 4.2 µM in test [3] (OE21, 24 h constant exposure); 2.9 ± 1.5 µM in test [3] (OE21, 72 h constant exposure); 78.5 ± 1.3 µM in test [4] (24 h constant exposure); 22 ± 2 µM in test [4] (72 h constant exposure). Also, the “greater potency than cisplatin” value in test [3] (OE21, 72 h incubation) is “two-fold”. Besides, the S.F. in test [5] (OE21, IR 0 Gy) is given as 1.062; in test [5] (OE21, IR 2 Gy), 0.801; in test [5] (OE21, IR 4 Gy), 0.410; in test [5] (OE21, IR 6 Gy), 0.152; in test [5] (OE21, IR 8 Gy), 0.062.

As usually defined, the IC50 is the concentration that gives 50% inhibition. Higher therefore signals weaker potency in that assay.
